Results on 24 compounds are retold here after patent US20260226068A1, “IMIDAZOTRIAZINE IL-17A MODULATORS AND USES THEREOF” (DICE ALPHA, INC., priority 2023, published 2026).

pIC50: −log10 of the molar value.

The target of one assay is T1, IL-17A/F (Homo sapiens, UniProt Q16552+Q96PD4).
T1 construct: purchased R&D Systems
T1 sequence (Q16552 24-155): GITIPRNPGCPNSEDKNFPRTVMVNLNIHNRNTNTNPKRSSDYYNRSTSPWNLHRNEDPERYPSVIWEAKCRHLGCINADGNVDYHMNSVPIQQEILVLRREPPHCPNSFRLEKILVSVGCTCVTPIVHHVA
T1 sequence (Q96PD4 31-163): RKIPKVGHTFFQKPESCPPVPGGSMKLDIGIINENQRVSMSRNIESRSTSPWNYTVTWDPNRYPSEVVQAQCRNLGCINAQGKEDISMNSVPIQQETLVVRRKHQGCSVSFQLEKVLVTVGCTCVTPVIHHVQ
In words: IL-17A/F HEK-Blue cell assay (SEAP reporter). The format is cell-based. The following applies: HEK-Blue IL-17A reporter cells, IL17A/F 5 ng/mL, 20 hours, SEAP read at A630; read-out: HEK-Blue IL17AF (IC50 for IL-17A/F inhibition).

Another assay concerns the target T2, IL-17A/A (Homo sapiens, UniProt Q16552).
T2 construct: purchased Genscript Z03228
T2 sequence (Q16552 24-155): T1 sequence (Q16552 24-155)
In words: IL-17A/A HEK-Blue cell assay (SEAP reporter). It is filed as cell-based. The following applies: HEK-Blue IL-17A reporter cells, IL17A/A 5 ng/mL, 20 hours, SEAP read at A630; read-out: HEK-Blue IL17AA (IC50 for IL-17A/A inhibition).

Turning to `CCn1nccc1C(=O)N[C@H](c1cn2nc(C[C@H]3C[C@@H](C(F)(F)F)CNC3=O)c(N3CCN(C)C4(CC4)C3)nc2n1)C1CCC(F)(F)CC1` [Compound 357, N—((S)-(4,4-difluorocyclohexyl)(3-(4-methyl-4,7-diazaspiro[2.5]octan-7-yl)-2-(((3R,5R)-2-oxo-5-(trifluoromethyl)piperidin-3-yl)methyl)imidazo[1,2-b][1,2,4]triazin-6-yl)methyl)-1-ethyl-1H-pyrazole-5-carboxamide], the pIC50 at IL-17A/F was 6.00 to 7.00; at IL-17A/A, over 7.00.

For `CCn1nccc1C(=O)N[C@H](c1cn2nc(C[C@H]3C[C@@H](C(F)(F)F)CNC3=O)c(C3CCOCC3)nc2n1)C1CC[C@@H]2C[C@@H]2CC1` (single isomer, unassigned) [Compound 294], the pIC50 on IL-17A/F and on IL-17A/A was over 7.00 each time.

Turning to `CCn1nccc1C(=O)N[C@H](c1cn2nc(C[C@H]3C[C@@H](C(F)(F)F)CNC3=O)c(C3CCOCC3)nc2n1)[C@H]1CCCC(F)(F)C1` [Compound 66, N—((S)—((S)-3,3-difluorocyclohexyl)(2-(((3R,5R)-2-oxo-5-(trifluoromethyl)piperidin-3-yl)methyl)-3-(tetrahydro-2H-pyran-4-yl)imidazo[1,2-b][1,2,4]triazin-6-yl)methyl)-1-ethyl-11H-pyrazole-5-carboxamide], the pIC50 on IL-17A/F and at IL-17A/A was over 7.00 in each case.

For the compound `CCn1nccc1C(=O)N[C@H](c1cn2nc(C[C@H]3C[C@@H](C(F)(F)F)CNC3=O)c(C3(C)CCCOC3)nc2n1)C1CCC(F)(F)CC1` (single isomer, unassigned) [Compound 165], the pIC50 is 6.00 to 7.00 at IL-17A/F and over 7.00 at IL-17A/A.

Turning to `CCn1nccc1C(=O)N[C@H](c1cn2nc(C[C@H]3C[C@@H](C(F)(F)F)CNC3=O)c(C(C)C)nc2n1)C1CCC(F)(F)CC1` [Compound 87, N-((1S)-(4,4-difluorocyclohexyl)(3-isopropyl-2-(((3R,5R)-2-oxo-5-(trifluoromethyl)piperidin-3-yl)methyl)imidazo[1,2-b][1,2,4]triazin-6-yl)methyl)-1-ethyl-1H-pyrazole-5-carboxamide], the figures for the pIC50 on IL-17A/F and at IL-17A/A were 6.00 to 7.00 and over 7.00, respectively.

For the compound `O=C(N[C@H](c1cn2nc(C[C@H]3C[C@@H](C(F)(F)F)CNC3=O)c(C3CCS(=O)(=O)CC3)nc2n1)C1CCC(F)(F)CC1)c1nonc1C1CC1` [Compound 243, 4-cyclopropyl-N—((S)-(4,4-difluorocyclohexyl)(3-(1,1-dioxidotetrahydro-2H-thiopyran-4-yl)-2-(((3R,5R)-2-oxo-5-(trifluoromethyl)piperidin-3-yl)methyl)imidazo[1,2-b][1,2,4]triazin-6-yl)methyl)-1,2,5-oxadiazole-3-carboxamide], the pIC50 on IL-17A/F is under 6.00; on IL-17A/A, over 7.00.

With `CCn1nccc1C(=O)N[C@H](c1cn2nc(C[C@H]3C[C@@H](C(F)(F)F)CNC3=O)c(N3CCO[C@H](C)C3)nc2n1)[C@H]1CCCC(F)(F)C1` [Compound 121, N—((S)—((S)-3,3-difluorocyclohexyl)(3-((R)-2-methylmorpholino)-2-(((3R,5R)-2-oxo-5-(trifluoromethyl)piperidin-3-yl)methyl)imidazo[1,2-b][1,2,4]triazin-6-yl)methyl)-1-ethyl-1H-pyrazole-5-carboxamide], the pIC50 on IL-17A/F and at IL-17A/A was over 7.00 in each case.

Turning to `CC(C)n1nccc1C(=O)N[C@H](c1cn2nc(C[C@H]3C[C@H](C(F)(F)F)CNC3=O)cnc2n1)C1CCC(F)(F)CC1` [Compound 41], the figures for the pIC50 on IL-17A/F and on IL-17A/A were under 6.00 and 6.00 to 7.00, respectively.

With `O=C(N[C@H](c1cn2nc(C[C@H]3C[C@@H](C(F)(F)F)CNC3=O)cnc2n1)C1CCC(F)(F)CC1)c1nonc1[C@@H]1CC1(F)F` (single isomer, unassigned) [Compound 77], the results for the pIC50 on IL-17A/F and at IL-17A/A were under 6.00 and over 7.00, respectively.

For `CCn1nccc1C(=O)N[C@H](c1cn2nc(C[C@H]3C[C@@H](C(F)(F)F)CNC3=O)c(C3CCCN3C)nc2n1)C1CCC(F)(F)CC1` (stereo partly drawn) [Compound 413], the figures for the pIC50 at IL-17A/F and at IL-17A/A were under 6.00 and 6.00 to 7.00, respectively.

For `O=C(N[C@H](c1cn2nc(CC3C[C@@H](C(F)(F)F)CNC3=O)c(N3CCOCC3)nc2n1)C1CCC(F)(F)CC1)c1conc1C1CC1(F)F` (single isomer, unassigned) [Compound 115], the pIC50 on IL-17A/F was under 6.00; on IL-17A/A it was over 7.00.

With `CCn1nccc1C(=O)N[C@H](c1cn2nc(C[C@H]3C[C@@H](C(F)(F)F)CNC3=O)c(C3CCC(F)(F)CC3)nc2n1)C1CCC(F)(F)CC1` [Compound 182, N-((1S)-(4,4-difluorocyclohexyl)(3-(4,4-difluorocyclohexyl)-2-(((3R,5R)-2-oxo-5-(trifluoromethyl)piperidin-3-yl)methyl)imidazo[1,2-b][1,2,4]triazin-6-yl)methyl)-1-ethyl-1H-pyrazole-5-carboxamide], the pIC50 at IL-17A/F and at IL-17A/A was over 7.00 in each case.

With `CCc1nonc1C(=O)N[C@H](c1cn2nc(C[C@@H]3C[C@@H](C)CNC3=O)c(C3CCOCC3)nc2n1)C1CCC(F)(F)CC1` [Compound 394], the pIC50 on IL-17A/F is under 6.00; on IL-17A/A, over 7.00.

With `CCn1nccc1C(=O)N[C@H](c1cn2nc(C[C@H]3C[C@@H](C(F)(F)F)CNC3=O)c(CC3CCOCC3)nc2n1)C1CCC(F)(F)CC1` [Compound 141, N-((1S)-(4,4-difluorocyclohexyl)(2-(((3R,5R)-2-oxo-5-(trifluoromethyl)piperidin-3-yl)methyl)-3-((tetrahydro-2H-pyran-4-yl)methyl)imidazo[1,2-b][1,2,4]triazin-6-yl)methyl)-1-ethyl-1H-pyrazole-5-carboxamide], the pIC50 at IL-17A/F and on IL-17A/A was over 7.00 throughout.

`CCn1nccc1C(=O)N[C@H](c1cn2nc(C[C@H]3C[C@@H](C(F)(F)F)CNC3=O)cnc2n1)[C@H]1CC[C@H](C)CC1` [Compound 26]: the pIC50 at IL-17A/F is under 6.00; at IL-17A/A, over 7.00.

As to `CCn1nccc1C(=O)N[C@H](c1cn2nc(C[C@@H]3CC(F)(F)CNC3=O)c(C3CCOCC3)nc2n1)C(C1CC1)C1CC1` [Compound 328], the pIC50 was 6.00 to 7.00 on IL-17A/F and over 7.00 on IL-17A/A.

As for `CCn1nccc1C(=O)N[C@H](c1cn2nc(C[C@H]3C[C@@H](C(F)(F)F)CNC3=O)c(C3(OC)CCC(F)(F)CC3)nc2n1)C1CCC(F)(F)CC1` [Compound 270, N—((S)-(3-(4,4-difluoro-1-methoxycyclohexyl)-2-(((3R,5R)-2-oxo-5-(trifluoromethyl)piperidin-3-yl)methyl)imidazo[1,2-b][1,2,4]triazin-6-yl)(4,4-difluorocyclohexyl)methyl)-1-ethyl-1H-pyrazole-5-carboxamide], the pIC50 was under 6.00 on IL-17A/F and over 7.00 at IL-17A/A.

Consider `CCn1nccc1C(=O)N[C@H](c1cn2nc(C[C@H]3C[C@@H](C(F)(F)F)CNC3=O)c(C3CCOCC3)nc2n1)[C@@H]1CCCC(F)(F)C1` [Compound 67, N—((S)—((R)-3,3-difluorocyclohexyl)(2-(((3R,5R)-2-oxo-5-(trifluoromethyl)piperidin-3-yl)methyl)-3-(tetrahydro-2H-pyran-4-yl)imidazo[1,2-b][1,2,4]triazin-6-yl)methyl)-1-ethyl-1H-pyrazole-5-carboxamide], for which the pIC50 on IL-17A/F and on IL-17A/A was over 7.00 in each case.

On to `CCn1nccc1C(=O)N[C@H](c1cn2nc(CC3C[C@@H](C(F)(F)F)CNC3=O)c(N3CCO[C@@H](C)C3)nc2n1)[C@@H]1CCCC(F)(F)C1` (single isomer, unassigned) [Compound 207], for which the pIC50 at IL-17A/F is 6.00 to 7.00; at IL-17A/A, over 7.00.

`CCn1nccc1C(=O)N[C@H](c1cn2nc(C[C@H]3C[C@@H](C(F)(F)F)CNC3=O)c(C3CCOC(C)(C)C3)nc2n1)C1CCC(F)(F)CC1` (single isomer, unassigned) [Compound 163]: the pIC50 was 6.00 to 7.00 at IL-17A/F and over 7.00 at IL-17A/A.

For the compound `CCn1nccc1C(=O)N[C@@H](COC(C)(C)C(F)(F)F)c1cn2nc(C[C@H]3C[C@@H](C(F)(F)F)CNC3=O)c(C3CCOCC3)nc2n1` (single isomer, unassigned) [Compound 159], the figures for the pIC50 on IL-17A/F and on IL-17A/A were under 6.00 and over 7.00, respectively.

Take `CCn1nccc1C(=O)N[C@H](c1cn2nc(C[C@H]3C[C@@H](C(F)(F)F)CNC3=O)c(CN3CCC(F)(F)C3)nc2n1)[C@H]1CC[C@H](C)CC1` [Compound 375, N—((S)-(3-((3,3-difluoropyrrolidin-1-yl)methyl)-2-(((3R,5R)-2-oxo-5-(trifluoromethyl)piperidin-3-yl)methyl)imidazo[1,2-b][1,2,4]triazin-6-yl)((1r,4S)-4-methylcyclohexyl)methyl)-1-ethyl-1H-pyrazole-5-carboxamide]: the figures for the pIC50 at IL-17A/F and on IL-17A/A were 6.00 to 7.00 and over 7.00, respectively.

As for `CCn1nccc1C(=O)N[C@H](c1cn2nc(C[C@H]3C[C@@H](C(F)(F)F)CNC3=O)c(C3CCOC3)nc2n1)[C@@H]1CCCC(F)(F)C1` (single isomer, unassigned) [Compound 73], the pIC50 at IL-17A/F is 6.00 to 7.00; on IL-17A/A, over 7.00.

`CCn1nccc1C(=O)N[C@H](c1cn2nc(C[C@H]3C[C@@H](C(F)(F)F)CNC3=O)c(C3CCN(C)CC3)nc2n1)C1CCC(F)(F)CC1` [Compound 300, N—((S)-(4,4-difluorocyclohexyl)(3-(1-methylpiperidin-4-yl)-2-(((3R,5R)-2-oxo-5-(trifluoromethyl)piperidin-3-yl)methyl)imidazo[1,2-b][1,2,4]triazin-6-yl)methyl)-1-ethyl-1H-pyrazole-5-carboxamide]: the pIC50 at IL-17A/F is under 6.00; at IL-17A/A it was 6.00 to 7.00.
